Assay [1] concerns the target Polycomb protein SUZ12 (Homo sapiens) (UniProt Q15022). The note with it: at 1 µM.
Assay [2] deals with Protein-tyrosine kinase 6 (Homo sapiens, UniProt Q13882). Nature of the assay: Selectivity interaction (KinomeScan (DiscoverX)) EUB0000229b PTK6. As to conditions: at 10 µM.
For assay [3], the target named is T1, Phosphatidylinositol 4,5-bisphosphate 3-kinase catalytic subunit delta isoform (Homo sapiens) (UniProt O00329).
T1 sequence (whole entry): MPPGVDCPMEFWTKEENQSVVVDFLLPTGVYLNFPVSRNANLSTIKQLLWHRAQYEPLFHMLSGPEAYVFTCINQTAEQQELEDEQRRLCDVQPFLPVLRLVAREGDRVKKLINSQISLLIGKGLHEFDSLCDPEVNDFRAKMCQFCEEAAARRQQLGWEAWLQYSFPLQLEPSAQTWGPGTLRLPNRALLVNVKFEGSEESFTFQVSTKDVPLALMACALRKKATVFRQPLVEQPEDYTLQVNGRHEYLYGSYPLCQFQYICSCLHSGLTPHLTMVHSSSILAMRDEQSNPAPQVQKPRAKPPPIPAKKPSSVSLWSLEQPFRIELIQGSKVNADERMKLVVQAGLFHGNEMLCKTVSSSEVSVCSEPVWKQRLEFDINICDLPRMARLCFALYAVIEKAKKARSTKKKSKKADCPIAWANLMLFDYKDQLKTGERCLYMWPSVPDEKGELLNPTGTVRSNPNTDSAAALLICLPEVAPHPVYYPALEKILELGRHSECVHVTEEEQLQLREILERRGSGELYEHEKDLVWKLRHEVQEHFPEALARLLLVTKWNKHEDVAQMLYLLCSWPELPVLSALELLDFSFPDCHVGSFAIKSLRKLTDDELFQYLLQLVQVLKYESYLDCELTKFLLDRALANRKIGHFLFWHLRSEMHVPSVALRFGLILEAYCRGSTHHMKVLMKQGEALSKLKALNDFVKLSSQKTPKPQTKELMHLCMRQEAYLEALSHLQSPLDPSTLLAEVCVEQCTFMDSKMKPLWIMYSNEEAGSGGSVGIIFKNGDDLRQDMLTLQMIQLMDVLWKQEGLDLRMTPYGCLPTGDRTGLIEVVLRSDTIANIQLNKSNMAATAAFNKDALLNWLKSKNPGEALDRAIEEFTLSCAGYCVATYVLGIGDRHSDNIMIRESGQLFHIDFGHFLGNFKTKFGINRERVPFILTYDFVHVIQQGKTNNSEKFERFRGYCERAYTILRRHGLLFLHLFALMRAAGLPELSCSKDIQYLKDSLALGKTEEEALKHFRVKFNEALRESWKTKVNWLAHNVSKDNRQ
Nature of the assay: Selectivity interaction (ProQinase) EUB0000171b PIK3CD.

In the next assay the target is Insulin receptor (Homo sapiens, UniProt P06213). Nature of the assay: Selectivity interaction (ProQinase) EUB0000171b INSR. The note with it: at 1 µM.
Assay [4] deals with T2, Serine/threonine-protein kinase haspin (Homo sapiens) (UniProt Q8TF76).
T2 sequence (whole entry): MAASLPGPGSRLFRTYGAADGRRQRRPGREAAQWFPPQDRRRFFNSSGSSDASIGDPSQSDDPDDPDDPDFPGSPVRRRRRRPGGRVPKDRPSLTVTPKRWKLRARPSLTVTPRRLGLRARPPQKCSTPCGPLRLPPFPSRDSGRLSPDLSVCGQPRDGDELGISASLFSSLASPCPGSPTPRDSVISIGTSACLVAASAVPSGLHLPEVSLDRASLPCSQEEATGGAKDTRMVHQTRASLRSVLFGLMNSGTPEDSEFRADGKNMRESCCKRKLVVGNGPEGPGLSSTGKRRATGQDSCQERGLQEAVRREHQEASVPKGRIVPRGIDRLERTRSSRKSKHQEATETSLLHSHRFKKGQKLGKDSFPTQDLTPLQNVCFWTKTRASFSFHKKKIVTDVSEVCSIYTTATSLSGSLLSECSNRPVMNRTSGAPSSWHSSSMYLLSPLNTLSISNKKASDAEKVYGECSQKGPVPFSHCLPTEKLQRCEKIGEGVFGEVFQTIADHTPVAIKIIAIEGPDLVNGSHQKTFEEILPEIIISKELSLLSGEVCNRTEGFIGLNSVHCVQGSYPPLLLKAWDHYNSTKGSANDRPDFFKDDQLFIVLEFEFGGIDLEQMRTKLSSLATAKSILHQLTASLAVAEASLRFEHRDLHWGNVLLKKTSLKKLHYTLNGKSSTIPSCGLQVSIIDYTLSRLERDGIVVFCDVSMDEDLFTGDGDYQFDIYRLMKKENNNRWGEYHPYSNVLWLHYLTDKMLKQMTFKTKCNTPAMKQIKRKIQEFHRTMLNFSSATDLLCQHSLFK
Nature of the assay: Selectivity interaction (Kinase panel (DSF assay)) EUB0001559a GSG2. (In general: DSF heats the sample and reads unfolding from a dye or from intrinsic fluorescence.)

Assay [5] concerns the target T3, Casein kinase I isoform alpha-like (Homo sapiens) (UniProt Q8N752).
T3 sequence (whole entry): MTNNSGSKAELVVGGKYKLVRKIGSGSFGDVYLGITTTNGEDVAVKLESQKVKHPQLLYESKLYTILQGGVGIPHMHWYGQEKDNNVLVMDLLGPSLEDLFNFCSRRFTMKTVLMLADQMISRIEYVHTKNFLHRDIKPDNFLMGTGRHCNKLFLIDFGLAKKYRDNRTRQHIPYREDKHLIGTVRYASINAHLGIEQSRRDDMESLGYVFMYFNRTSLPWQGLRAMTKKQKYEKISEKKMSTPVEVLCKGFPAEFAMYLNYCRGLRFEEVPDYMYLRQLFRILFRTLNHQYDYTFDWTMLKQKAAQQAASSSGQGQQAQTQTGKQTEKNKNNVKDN
Nature of the assay: Selectivity interaction (KinomeScan (DiscoverX)) EUB0000045b CSNK1A1L.

For assay [6], the target named is T4, Mitogen-activated protein kinase 15 (Homo sapiens) (UniProt Q8TD08).
T4 sequence (whole entry): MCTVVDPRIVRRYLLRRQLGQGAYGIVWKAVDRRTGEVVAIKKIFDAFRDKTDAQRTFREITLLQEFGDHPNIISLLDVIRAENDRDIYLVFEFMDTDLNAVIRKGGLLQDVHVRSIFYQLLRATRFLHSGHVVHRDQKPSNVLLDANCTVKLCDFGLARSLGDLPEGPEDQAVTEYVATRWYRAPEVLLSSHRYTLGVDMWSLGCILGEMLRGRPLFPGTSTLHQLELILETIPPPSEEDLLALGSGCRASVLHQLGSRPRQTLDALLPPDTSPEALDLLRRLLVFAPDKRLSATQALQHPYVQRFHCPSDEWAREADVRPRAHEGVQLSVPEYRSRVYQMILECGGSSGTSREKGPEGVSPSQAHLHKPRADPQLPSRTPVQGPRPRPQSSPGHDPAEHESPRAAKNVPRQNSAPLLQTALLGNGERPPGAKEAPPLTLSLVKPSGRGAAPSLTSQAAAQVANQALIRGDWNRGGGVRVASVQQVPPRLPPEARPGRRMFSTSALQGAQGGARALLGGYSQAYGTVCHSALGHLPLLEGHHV
Nature of the assay: Selectivity interaction (KinomeScan (DiscoverX)) EUB0000595a MAPK15. As to conditions: at 10 µM.

The structures appear in SMILES notation.

Insulin receptor, sequence (P06213 28-758 limits assumed): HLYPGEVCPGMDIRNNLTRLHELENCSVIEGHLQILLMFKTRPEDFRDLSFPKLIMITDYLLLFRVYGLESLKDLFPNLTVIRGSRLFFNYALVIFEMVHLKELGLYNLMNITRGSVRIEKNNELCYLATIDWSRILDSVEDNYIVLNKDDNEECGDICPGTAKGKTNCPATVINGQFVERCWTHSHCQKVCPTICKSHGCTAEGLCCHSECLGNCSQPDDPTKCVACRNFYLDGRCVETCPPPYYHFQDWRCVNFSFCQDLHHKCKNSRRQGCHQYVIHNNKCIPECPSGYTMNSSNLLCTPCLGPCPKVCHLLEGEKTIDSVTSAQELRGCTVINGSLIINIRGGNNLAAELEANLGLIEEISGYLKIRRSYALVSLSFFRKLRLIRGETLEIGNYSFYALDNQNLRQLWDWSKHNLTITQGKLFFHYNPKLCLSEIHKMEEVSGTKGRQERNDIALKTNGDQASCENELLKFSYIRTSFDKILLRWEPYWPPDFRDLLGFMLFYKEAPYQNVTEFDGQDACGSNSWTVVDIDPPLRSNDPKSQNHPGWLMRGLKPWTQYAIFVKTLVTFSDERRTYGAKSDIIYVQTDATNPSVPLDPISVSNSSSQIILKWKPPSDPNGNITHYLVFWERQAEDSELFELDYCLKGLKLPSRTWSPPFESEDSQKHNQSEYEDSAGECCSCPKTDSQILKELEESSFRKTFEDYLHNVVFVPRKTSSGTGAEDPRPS
Insulin receptor, sequence (P06213 763-1382 limits assumed): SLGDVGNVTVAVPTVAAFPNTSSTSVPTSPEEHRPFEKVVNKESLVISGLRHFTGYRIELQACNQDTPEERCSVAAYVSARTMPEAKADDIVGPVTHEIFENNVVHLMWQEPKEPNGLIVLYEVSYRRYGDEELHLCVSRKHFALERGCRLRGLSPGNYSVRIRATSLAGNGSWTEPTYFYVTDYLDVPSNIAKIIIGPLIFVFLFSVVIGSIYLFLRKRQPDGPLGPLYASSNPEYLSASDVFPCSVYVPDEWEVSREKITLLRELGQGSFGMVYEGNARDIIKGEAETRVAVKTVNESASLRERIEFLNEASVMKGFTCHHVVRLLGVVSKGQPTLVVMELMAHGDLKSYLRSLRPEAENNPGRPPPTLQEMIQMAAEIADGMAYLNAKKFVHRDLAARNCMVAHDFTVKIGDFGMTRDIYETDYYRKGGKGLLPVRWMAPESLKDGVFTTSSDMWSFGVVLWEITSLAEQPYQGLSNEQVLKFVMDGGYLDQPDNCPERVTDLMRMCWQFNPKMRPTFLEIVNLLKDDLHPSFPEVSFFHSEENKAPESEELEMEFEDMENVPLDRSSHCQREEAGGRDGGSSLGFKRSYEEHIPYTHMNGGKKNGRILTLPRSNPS
Protein-tyrosine kinase 6, sequence (Q13882 whole entry, looked up, canonical isoform): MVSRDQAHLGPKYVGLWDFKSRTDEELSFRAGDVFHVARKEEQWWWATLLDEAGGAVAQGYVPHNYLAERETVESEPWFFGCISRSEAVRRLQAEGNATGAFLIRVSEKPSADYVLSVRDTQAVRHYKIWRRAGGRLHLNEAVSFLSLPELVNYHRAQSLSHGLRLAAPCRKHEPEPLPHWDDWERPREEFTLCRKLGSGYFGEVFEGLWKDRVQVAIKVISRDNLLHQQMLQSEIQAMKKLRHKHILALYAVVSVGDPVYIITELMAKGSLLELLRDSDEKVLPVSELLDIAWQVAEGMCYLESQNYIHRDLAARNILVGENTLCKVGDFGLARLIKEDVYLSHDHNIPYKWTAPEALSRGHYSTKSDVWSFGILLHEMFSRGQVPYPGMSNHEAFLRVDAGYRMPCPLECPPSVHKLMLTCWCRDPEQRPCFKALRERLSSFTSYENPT
Polycomb protein SUZ12 (Homo sapiens), sequence (Q15022 whole entry): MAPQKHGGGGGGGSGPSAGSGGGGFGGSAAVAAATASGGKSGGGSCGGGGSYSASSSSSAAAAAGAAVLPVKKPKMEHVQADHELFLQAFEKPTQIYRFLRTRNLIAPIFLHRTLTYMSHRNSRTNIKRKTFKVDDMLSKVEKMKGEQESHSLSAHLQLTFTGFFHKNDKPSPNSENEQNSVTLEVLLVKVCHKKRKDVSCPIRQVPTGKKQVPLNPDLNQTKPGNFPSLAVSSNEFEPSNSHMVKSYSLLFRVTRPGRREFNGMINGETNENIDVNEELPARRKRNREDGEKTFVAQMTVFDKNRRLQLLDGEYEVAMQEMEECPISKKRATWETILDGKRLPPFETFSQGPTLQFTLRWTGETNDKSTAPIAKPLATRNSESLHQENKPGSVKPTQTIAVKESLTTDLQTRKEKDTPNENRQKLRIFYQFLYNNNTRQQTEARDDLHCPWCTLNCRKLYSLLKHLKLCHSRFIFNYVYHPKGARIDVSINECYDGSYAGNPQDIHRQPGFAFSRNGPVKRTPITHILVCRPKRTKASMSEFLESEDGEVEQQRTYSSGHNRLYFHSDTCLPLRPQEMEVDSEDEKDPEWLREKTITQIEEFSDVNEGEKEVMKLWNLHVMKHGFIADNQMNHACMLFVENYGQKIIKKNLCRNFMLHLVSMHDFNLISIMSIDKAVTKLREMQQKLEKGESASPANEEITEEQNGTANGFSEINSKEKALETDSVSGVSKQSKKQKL

Take `CNCCN1CCC(c2cc(CN(C)C(=O)c3cccc(Oc4ccccc4)c3)ccn2)CC1`: the % activity in assay [1] was greater than 90%.

In assay [2], `COc1cc(N(C)c2ccnc3ccc(C(F)(F)F)cc23)cc(OC)c1OC` returned a % binding of 94%.

With `C=CC(=O)Nc1cccc(C(=O)Nc2ccc(Nc3cc(-c4[nH]c(SC)nc4C)ccn3)cc2)c1`, the results for the % of control (in assay [3] (at 1 µM); in assay [3] (at 5 µM); at Insulin receptor) were 119%, 113% and 81%, respectively.

Take `CN(C(=O)c1cnn2cccnc12)c1cc2c(cc1N1CCOCC1)C(=O)N(C[C@@H](F)C(C)(C)O)C2`: the dTM in assay [4] was found to be 1.8 K.

On to `C=CC(=O)Nc1cc(-n2c(=O)ccc3cnc4ccc(-c5ccc(NS(C)(=O)=O)cc5)cc4c32)ccc1C`, for which the % of control in assay [5] (at 1 µM) and in assay [5] (at 10 µM) was 100% in each case.

In turn, `COCC(=O)NC/C=C/c1ccc2ncnc(Nc3ccc(Oc4ccc(C)nc4)c(C)c3)c2c1` [CP-724714] yielded a % of control in assay [6] of 100%.

Values taken from ChEMBL document CHEMBL5465560, “Selectivity Literature for EUbOPEN Chemogenomic Library” (2024).
